Data taken from article PMC11040670, “Mechanistic and Kinetic Insights into Cellular Uptake of Biomimetic Dinitrosyl Iron Complexes and Intracellular Delivery of NO for Activation of Cytoprotective HO-1” (JACS Au, 2024).
Marks after values point to notes of the source that are not given here.

Columns and labels:
N2a = assay: Intracellular release of NO (DAF-FM fluorescence) in N2a; assay type: cell-based, mouse; conditions: 100 μM DNIC–COOH or 10 μM DNIC–COOMe
Experimental: Intracellular release of NO by DNIC–COOH was validated using the fluorescence probe 4-amino-5-methylamino-2′,7′-difluorofluorescein diacetate (DAF-FM) in combination with fluorescence analysis techniques. Briefly, the MSC cells (or N2a and HCEC cells) were seeded onto a 96-well black plate at a density of 6 × 10^3 cells/well (or 1 × 10^4 cells/well for N2a and 8 × 10^3 cells/well for HCEC cells) and incubated at 37 °C overnight. On the next day, the MSC cells were first treated with 10 μM of DAF-FM (or 5 μM for N2a and HCEC cells) and incubated at 37 °C for 0.5 h. […] Fluorescence intensity of the cells was then recorded using a microplate reader (SpectraMax iD3, Molecular Devices, San Jose, CA) with an excitation wavelength at 485 nm and an emission wavelength at 525 nm. Three independent experiments were executed to measure the time-dependent change of average fluorescence intensity. Time-dependent change of average fluorescence intensity for the MSC/N2a/HCEC cells with sequential treatment of DAF-FM (10 μM for MSC cells, 5 μM for N2a cells, 5 μM for HCEC cells; 0.5 h) and DNIC–COOMe (2.5 μM for MSC cells, 10 μM for N2a cells, 1 μM for HCEC cells) was determined in a similar manner. […]

[1] = NO-release reactivity of DNICs (total nitrate/nitrite assay); assay type: physicochemical; conditions: dinuclear DNIC 25 μM, phosphate buffer (pH 7.4), no additive, normoxia, 37 °C
Experimental: The NO-release reactivity of DNICs in 50 mM potassium phosphate buffer (pH 7.4) under normoxia condition at 37 °C was investigated using Nitrate/Nitrite Colorimetric Assay Kit (Item No. 780001, Cayman). After addition of 10 μL of 100 mM stock solution of DNIC–COOH (or DNIC–COOMe) in DMSO to 990 μL of 50 mM potassium phosphate buffer (pH 7.4), 25 μM of DNIC–COOH (or DNIC–COOMe) was prepared by the addition of 0.125 mL of this 1 mM solution of DNIC–COOH (or DNIC–COOMe) to 4.875 mL of 50 mM potassium phosphate buffer (pH 7.4). This solution was incubated at 37 °C under normoxia condition for 0, 1, 2, 4, 8, 24, 48, and 72 h, respectively. Then, 40 μL of the solution was collected to assess the release of NO using a Nitrate/Nitrite Colorimetric Assay Kit (Item No. 780001, Cayman). After each 40 μL aliquot of the aqueous solution was mixed with 40 μL of kit assay buffer, 10 μL of Enzyme Cofactor Mixture (Item No. 780012) and 10 μL of nitrate reductase mixture (Item No. 780010) were added before this mixture solution was incubated at room temperature for 1 h. […] The absorbance at 540 nm was then recorded using a microplate reader (SpectraMax iD3, Molecular Devices, San Jose, CA) with a reference wavelength of 800 nm. […]

O=[N][Fe]1([N]=O)[SH](CCC(=O)O)[Fe]([N]=O)([N]=O)[SH]1CCC(=O)O (stereo not shown) [DNIC–COOH, [(NO)2Fe(μ-SCH2CH2COOH)2Fe(NO)2]]
tmax for intracellular release of NO (N2a): 4 h
t1/2 for release of NO from DNICs [1]: 10.7 ± 1.4 ^e h

COC(=O)CC[SH]1[Fe]([N]=O)([N]=O)[SH](CCC(=O)OC)[Fe]1([N]=O)[N]=O (stereo not shown) [DNIC–COOMe, [(NO)2Fe(μ-SCH2CH2COOCH3)2Fe(NO)2]]
tmax for intracellular release of NO (N2a): 2 h
t1/2 for release of NO from DNICs [1]: 9.1 ± 0.6 ^e h
